Legend:
[1] = target: T1, KRAS G12C and SOS1 proteins (Homo sapiens, UniProt Q07889); assay: KRAS-G12C/SOS1 binding assay (HTRF); conditions: Tag1-SOS1 / Tag2-KRAS G12C, 10 μM GTP
T1 construct: purchased Cisbio 63ADK000CB16PEG
T1 sequence (Q07889 1-1333): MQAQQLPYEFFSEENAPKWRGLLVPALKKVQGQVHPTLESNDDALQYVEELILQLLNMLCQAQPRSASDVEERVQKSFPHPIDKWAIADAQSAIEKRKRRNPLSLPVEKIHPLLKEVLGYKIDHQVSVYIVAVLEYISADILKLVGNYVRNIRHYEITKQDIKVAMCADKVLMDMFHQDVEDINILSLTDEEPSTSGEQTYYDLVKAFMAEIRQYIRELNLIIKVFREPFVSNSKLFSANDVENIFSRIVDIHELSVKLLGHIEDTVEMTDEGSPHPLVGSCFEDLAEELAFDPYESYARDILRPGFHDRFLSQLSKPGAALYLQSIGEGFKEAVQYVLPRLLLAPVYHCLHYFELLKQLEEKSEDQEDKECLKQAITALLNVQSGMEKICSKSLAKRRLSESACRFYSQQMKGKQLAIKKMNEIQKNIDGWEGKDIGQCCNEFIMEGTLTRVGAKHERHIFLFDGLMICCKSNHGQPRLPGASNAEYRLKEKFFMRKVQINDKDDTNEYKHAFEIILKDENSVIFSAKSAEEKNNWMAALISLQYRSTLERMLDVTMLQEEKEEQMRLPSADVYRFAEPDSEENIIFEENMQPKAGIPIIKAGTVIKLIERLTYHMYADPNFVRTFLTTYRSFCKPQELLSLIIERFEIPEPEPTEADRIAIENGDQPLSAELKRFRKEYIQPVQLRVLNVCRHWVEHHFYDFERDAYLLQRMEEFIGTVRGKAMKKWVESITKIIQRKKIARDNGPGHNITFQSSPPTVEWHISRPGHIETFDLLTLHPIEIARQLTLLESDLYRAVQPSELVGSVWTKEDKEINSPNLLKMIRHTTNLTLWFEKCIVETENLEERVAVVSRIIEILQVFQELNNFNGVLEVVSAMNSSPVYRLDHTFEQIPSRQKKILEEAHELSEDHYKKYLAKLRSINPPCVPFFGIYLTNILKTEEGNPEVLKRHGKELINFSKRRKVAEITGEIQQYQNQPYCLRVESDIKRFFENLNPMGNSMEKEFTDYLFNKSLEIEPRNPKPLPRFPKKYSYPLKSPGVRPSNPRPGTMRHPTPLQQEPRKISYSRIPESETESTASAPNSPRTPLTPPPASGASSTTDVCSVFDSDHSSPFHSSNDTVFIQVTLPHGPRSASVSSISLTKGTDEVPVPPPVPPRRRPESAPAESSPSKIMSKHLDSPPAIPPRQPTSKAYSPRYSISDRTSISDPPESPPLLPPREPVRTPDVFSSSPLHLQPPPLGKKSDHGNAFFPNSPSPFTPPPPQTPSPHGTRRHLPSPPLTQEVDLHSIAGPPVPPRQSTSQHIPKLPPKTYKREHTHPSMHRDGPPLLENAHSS
Protocol: KRAS-WT (or G12C/G12D/G12V)/SOS1 Binding Assay
Low IC50 values are indicative of high potency of the SOS1 inhibitor compounds in this assay setting.
The KRAS-WT (or G12C/G12D/G12V)/SOS1 binding assay is performed using an assay kit (Cisbio, Cat #63ADK000CB15PEG or 63ADK000CB16PEG/63ADK000CB17PEG/63ADK000CB18PEG) according to the procedure recommended by the manufacturer. • 1) Thaw and prepare the working solution of Tag1-SOS1 protein and Tag2-KRAS-WT (or G12C/G12D/G12V) protein with final concentration of 10 μM GTP (Sigma, Cat #V900868). • 2) Thaw and prepare the working solution of anti-Tag1-Tb^3+ anti-Tag2-XL665. • 3) Dispense 2 μL of serially diluted compound, 4 μL of Tag1-SOS1 protein and 4 μL of Tag2-KRAS-WT (or G12C/G12D/G12V) protein with GTP into a ProxiPlate-384 Plus, white 384-shallow well microplate (PerkinElmer, Cat #6008280). • 4) Incubate the plate for 15 minutes at room temperature. • 5) Dispense 10 μL of pre-mixed anti-Tag1-Tb^3+ and anti-Tag2-XL665 into the plate. • 6) Seal the plate and incubate for 2 hours at room temperature. • 7) Remove the plate sealer and read on PHERAstar FS (BMG LABTECH, PHERAstar FS). • 8) Calculate the ratio of the acceptor and donor emission signals for each individual well using the following equation.
[formula] • 9) IC50 values are fitted and calculated by HTRF signal values and log of compound concentrations to nonlinear regression [Log (inhibitor) vs. Response−Variable Slope (four parameters)] using the GraphPad Prism 8.0.

[2] = target: T2, KRAS-WT and SOS1 proteins (Homo sapiens, UniProt Q07889); assay: KRAS-WT/SOS1 binding assay (HTRF); conditions: Tag1-SOS1 / Tag2-KRAS-WT, 10 μM GTP, read-out: Activity Data in Kras: SOS1 Assay, Wild Type
T2 construct: purchased Cisbio 63ADK000CB15PEG
T2 sequence (Q07889 1-1333): T1 sequence (Q07889 1-1333)

[3] = target: T3, KRAS G12D and SOS1 proteins (Homo sapiens, UniProt Q07889); assay: KRAS-G12D/SOS1 binding assay (HTRF); conditions: Tag1-SOS1 / Tag2-KRAS G12D, 10 μM GTP
T3 construct: purchased Cisbio 63ADK000CB17PEG
T3 sequence (Q07889 1-1333): T1 sequence (Q07889 1-1333)

SMILES	IC50 [1] [nM]	IC50 [2] [nM]	IC50 [3] [nM]
Cc1nc(N[C@H](C)c2cccc3c2CCC3(F)F)c2cc(-c3ccc(=O)n(C)c3)c3nncn3c2n1 [Example 3, (R)-5-(4-((1-(1,1-difluoro-2,3-dihydro-1H-inden-4-yl)ethyl)amino)-2-methyl-[1,2,4]triazolo[4′,3′:1,6]pyrido[2,3-d]pyrimidin-6-yl)-1-methylpyridin-2(1H)-one]	100 to 500	–	–
Cc1nc(N[C@H](C)c2cccc(C(F)F)c2F)c2cc(-c3ccc(=O)n(C)c3)c3nncn3c2n1 [Example 4, (R)-5-(4-((1-(3-(difluoromethyl)-2-fluorophenyl)ethyl)amino)-2-methyl-[1,2,4]triazolo[4′,3′:1,6]pyrido[2,3-d]pyrimidin-6-yl)-1-methylpyridin-2(1H)-one]	< 100	–	–
Cc1nc(N[C@H](C)c2cccc(C(F)F)c2F)c2cc(C3CCOCC3)c3nncn3c2n1 [Example 5, (R)-N-(1-(3-(difluoromethyl)-2-fluorophenyl)ethyl)-2-methyl-6-(tetrahydro-2H-pyran-4-yl)-[1,2,4]triazolo[4′,3′:1,6]pyrido[2,3-d]pyrimidin-4-amine]	< 100	–	–
Cc1nc(N[C@H](C)c2cccc(C(F)(F)CO)c2)c2cc(-c3ccc(=O)n(C)c3)c3nncn3c2n1 [Example 6, (R)-5-(4-((1-(3-(1,1-difluoro-2-hydroxyethyl)phenyl)ethyl)amino)-2-methyl-[1,2,4]triazolo[4′,3′:1,6]pyrido[2,3-d]pyrimidin-6-yl)-1-methylpyridin-2(1H)-one]	< 100	–	–
COc1cc2c(cc1-c1ccc(=O)n(C)c1)c(N[C@H](C)c1cccc(C(F)F)c1F)nc1ccnn12 [Example 48, (R)-5-(5-((1-(3-(difluoromethyl)-2-fluorophenyl)ethyl)amino)-8-methoxypyrazolo[1,5-a]quinazolin-7-yl)-1-methylpyridin-2(1H)-one]	100 to 500	–	–
C[C@@H](Nc1nc2ccnn2c2cc(=O)n(C3CCN(S(C)(=O)=O)CC3)cc12)c1cccc(C(F)(F)CO)c1 [Example 67, (R)-5-((1-(3-(1,1-difluoro-2-hydroxyethyl)phenyl)ethyl)amino)-7-(1-(methylsulfonyl)piperidin-4-yl)pyrazolo[1,5-a]pyrido[3,4-e]pyrimidin-8(7H)-one]	–	< 100	100 to 500
C[C@@H](Nc1nc2ccnn2c2cc(=O)n(C3(C(F)F)CC3)cc12)c1cccc(C(F)(F)CO)c1 [Example 68, (R)-5-((1-(3-(1,1-difluoro-2-hydroxyethyl)phenyl)ethyl)amino)-7-(1-(difluoromethyl)cyclopropyl)pyrazolo[1,5-a]pyrido[3,4-e]pyrimidin-8(7H)-one]	–	< 100	< 100
C[C@@H](Nc1nc2ccnn2c2cc(=O)n([C@H]3CCOC3)cc12)c1cccc(C(F)(F)F)c1 [Example 69, 7-((S)-tetrahydrofuran-3-yl)-5-(((R)-1-(3-(trifluoromethyl)phenyl)ethyl)amino)pyrazolo[1,5-a]pyrido[3,4-e]pyrimidin-8(7H)-one]	–	100 to 500	100 to 500
C[C@@H](Nc1nc2ccnn2c2cc(=O)n([C@H]3CCOC3)cc12)c1cc(N)cc(C(F)(F)F)c1 [Example 70, 5-(((R)-1-(3-amino-5-(trifluoromethyl)phenyl)ethyl)amino)-7-((S)-tetrahydrofuran-3-yl)pyrazolo[1,5-a]pyrido[3,4-e]pyrimidin-8(7H)-one]	–	< 100	< 100
C[C@@H](Nc1nc2ccnn2c2cc(=O)n([C@H]3CCOC3)cc12)c1cccc2c1CCC2(F)F [Example 71, 5-(((R)-1-(1,1-difluoro-2,3-dihydro-1H-inden-4-yl)ethyl)amino)-7-((S)-tetrahydrofuran-3-yl)pyrazolo[1,5-a]pyrido[3,4-e]pyrimidin-8(7H)-one]	–	< 100	< 100
C[C@@H](Nc1nc2ccnn2c2cc(=O)n([C@H]3CCOC3)cc12)c1cccc(C(F)(F)CO)c1 [Example 72, 5-(((R)-1-(3-(1,1-difluoro-2-hydroxyethyl)phenyl)ethyl)amino)-7-((S)-tetrahydrofuran-3-yl)pyrazolo[1,5-a]pyrido[3,4-e]pyrimidin-8(7H)-one]	–	< 100	< 100
C[C@@H](Nc1nc2ccnn2c2cc(=O)n(C3CC(F)(F)C3)cc12)c1cc(F)cc(C(F)(F)CO)c1 [Example 73, (R)-5-((1-(3-(1,1-difluoro-2-hydroxyethyl)-5-fluorophenyl)ethyl)amino)-7-(3,3-difluorocyclobutyl)pyrazolo[1,5-a]pyrido[3,4-e]pyrimidin-8(7H)-one]	–	< 100	< 100
CNCc1ccccc1-c1ccc([C@@H](C)Nc2nc3ccnn3c3cc(=O)n(C4(C)CC4)cc23)s1 [Example 74, 8-{[(1R)-1-(5-{2-[(methylamino)methyl]phenyl}thiophen-2-yl)ethyl]amino}-11-(1-methylcyclopropyl)-2,3,7,11-tetraazatricyclo[7.4.0.0^{2,6}]trideca-1(13),3,5,7,9-pentaen-12-one]	–	< 100	< 100
CC(=O)N1CCC(n2cc3c(N[C@H](C)c4cccc(C(F)(F)CO)c4)nc4ccnn4c3cc2=O)CC1 [Example 75, 11-(1-acetylpiperidin-4-yl)-8-{[(1R)-1-[3-(1,1-difluoro-2-hydroxyethyl)phenyl]ethyl]amino}-2,3,7,11-tetraazatricyclo[7.4.0.0^{2,6}]trideca-1(13),3,5,7,9-pentaen-12-one]	–	< 100	< 100
C[C@@H](Nc1nc2ccnn2c2cc(=O)n(C3CCN(C)CC3)cc12)c1cccc(C(F)(F)CO)c1 [Example 76, (R)-5-((1-(3-(1,1-difluoro-2-hydroxyethyl)phenyl)ethyl)amino)-7-(1-methylpiperidin-4-yl)pyrazolo[1,5-a]pyrido[3,4-e]pyrimidin-8(7H)-one]	–	< 100	< 100
C[C@@H](Nc1nc2ccnn2c2cc(=O)n(C3CCNCC3)cc12)c1cccc(C(F)(F)CO)c1 [Example 77, 8-{[(1R)-1-[3-(1,1-difluoro-2-hydroxyethyl)phenyl]ethyl]amino}-11-(piperidin-4-yl)-2,3,7,11-tetraazatricyclo[7.4.0.0^{2,6}]trideca-1(13),3,5,7,9-pentaen-12-one]	–	< 100	< 100
C[C@@H](Nc1nc2c(F)cnn2c2cc(=O)n(C3CC(F)(F)C3)cc12)c1cccc(C(F)(F)CO)c1 [Example 78, (R)-5-((1-(3-(1,1-difluoro-2-hydroxyethyl)phenyl)ethyl)amino)-7-(3,3-difluorocyclobutyl)-3-fluoropyrazolo[1,5-a]pyrido[3,4-e]pyrimidin-8(7H)-one]	–	< 100	< 100

— patent US20240109891A1, “NOVEL SUBSTITUTED TRICYCLIC AZA-HETEROCYCLES AS SOS1 INHIBITORS” (Viva Star Biosciences (Suzhou) Co., Ltd., priority 2021, published 2024)
